We go through three compounds from ChEMBL document CHEMBL1208781, “Identification of N-(2-(azepan-1-yl)-2-phenylethyl)-benzenesulfonamides as novel inhibitors of GlyT1” (Bioorg Med Chem Lett, 2010).

Common to all, as to type: ADME, organism-based
Data set [1] can be described thus: Plasma concentration in Sprague-Dawley rat at 2.5 umol/kg, sc after 1 hr. The note with it: read-out: Drug uptake.
Data set [2] in a line: Drug level in brain to plasma in Sprague-Dawley rat at 2.5 umol/kg, sc after 1 hr.
For data set [3], the system named is Brain. In words: Drug level in Sprague-Dawley rat brain at 2.5 umol/kg, sc after 1 hr. The note with it: in vivo.

In the case of `COc1ccccc1C(CNS(=O)(=O)c1ccc(Cl)cc1)N1CCCCCC1` (centres undefined), the concentration at 1 h in data set [1] worked out at 103 nM. Besides, the Kp at 1 h in data set [2] was 1.9. The Drug uptake in data set [3] is 202 nmol/kg.

In the case of `COc1ccccc1C(CNS(=O)(=O)c1ccc(C(F)(F)F)cc1)N1CCCCCC1` (centres undefined), the concentration at 1 h in data set [1] amounted to 72 nM. In data set [2], the Kp at 1 h came to 2.1. The Drug uptake in data set [3] was 154 nmol/kg.

`COc1ccccc1C(CNS(=O)(=O)c1ccc(F)c(Cl)c1)N1CCCCCC1` (centres undefined): the concentration at 1 h in data set [1] worked out at 105 nM. Further, in data set [2], the Kp at 1 h amounted to 1.6. Further, in data set [3], the Drug uptake is 168 nmol/kg.

What is called Kp is the ratio of the level in a tissue or fluid to that in plasma or blood.
